“And” between values parts separate entries of the source, which are not always exact repeats. Equal entries are not always repeated.
How the values were obtained:
[1] = test system: PRAP expression in HT29 cells; assay: Real time RT-PCR of PRAP expression in HT29 cells treated with TSA, DAC or both; type: cell-based, human; conditions: HT29, 72 h, TSA (300 ng), DAC (1 μm); for PRAPcp-GAPDHcp: crossing point of PRAP normalized by GAPDH: untreated 12.63
Experimental: (§1) Sigma), trichostatin A (TSA, 300 nM; Sigma) or a combination of both drugs for 72 hours. For the combined treatment, cells were treated with 1 μM DAC for 24 h followed by the addition of 300 nM TSA for another 48 h. Total RNA was extracted using the […] (Qiagen). The experiment was performed in duplicates and the average result calculated. Primers for real-time PCR were designed using the LightCycler Probe Design Software, version 1.0 (Roche, France). […] Real-time PCR was performed on the LightCycler (Roche, France) using the LightCycler-RNA amplification Kit SYBR Green I (Roche, France). The specificity of the amplification was assessed by electrophoretic separation of the amplified products and melting curve analysis. […] The efficiencies of both amplifications were calculated according to the slope of the standard curves. Relative PRAP expression was quantified after normalisation with GAPDH.

[2] = test system: PRAP expression in HCT116 cells; assay: Real time RT-PCR of PRAP expression in HCT116 cells treated with TSA, DAC or both; type: cell-based, human; conditions: HCT116, 72 h, TSA (300 ng), DAC (1 μm); for PRAPcp-GAPDHcp: crossing point of PRAP normalized by GAPDH: untreated 13.97
Experimental: as §1

[3] = test system: PRAP gene expression in HT29 cells; assay: Northern blot of PRAP gene expression in butyrate-treated HT29 cells; type: cell-based, human; conditions: HT29, 5 mM butyrate
Experimental: The HT29, HCT116, HepG2 and HeLa cell lines were purchased from American Type Culture Collection (Manassas, Va.). HT29 and HCT116 cells were cultured in McCoy's 5A (Sigma Chemical Co., St. Louis, Mo.), HepG2 in DMEM and HeLa in RPMI, all supplemented with 10% fetal bovine serum (Life Technologies, Inc., Gaithersburg, Md.), at 37° C. in a 5% CO2 humidified atmosphere. Cells were treated with 5 mM sodium butyrate (final concentration in media; Life Technologies, Inc) or vehicle. Total RNA was prepared from the cells at the respective time points from three separate flasks.
In a separate experiment, total RNA from tissues and cell lines was prepared using the guanidinium thiocyanate method as previously described (MacDonald et al., 1987). 15 μg of RNA was separated by formaldehyde/agarose gel electrophoresis, transferred to nylon membrane (Qiabrane, Qiagen, Hilden, Germany), cross-linked (Stratalinker, Stratagene, La Jolla, Calif.), and hybridised to cDNA probes, as previously described (Wang et al., 1999). […] Relative mRNA levels were quantified by Typhoon phospho-imager (Amersham Bioscience, UK) and normalised against 18S levels. Normal/Tumour (N/T) ratios were obtained by dividing the normalised relative densitometric units of the normal mucosa by tumour.

[4] = test system: PRAP expression in HT29 cells; assay: Western blot of PRAP expression in HT29 cells at different butyrate concentrations; type: cell-based, human
Text: Cells or tissues were extracted with RIPA buffer (1×PBS, 1% Nonidet P-40, 0.5% sodium deoxychelate and 0.1% SDS. Protease inhibitors: PMSF, aprotinin, pepstatin A and leupeptin were freshly added to the RIPA buffer at the point of usage). […] The secondary antibody was either HRP-conjugated anti-rabbit IgG (BioRad, Hercules, Calif., 1:10,000) or HRP-conjugated anti-mouse antibody (Santa Cruz Biotechnology, Santa Cruz, Calif., 1:20,000). The proteins were visualized using the SuperSignal® West Dura Extended (Pierce) chemiluminescent substrate and exposed to an autoradiograph film.

HeLa cells [5] = assay: Cell numbers after transfection (overexpression) in HeLa cells, haemocytometer count after Trypan Blue; type: cell-based, human; conditions: 72 h after transfection
Experimental: The cDNA fragment was cloned into pcDNA 3.1. All plasmids were sequenced to confirm identity and exclude mutations. The plasmids were transfected into HepG2 and HeLa cells using Lipofectamine (Invitrogen), according to manufacturer's recommendations. Each experiment was performed in quadruplicates and repeated three times. After 72 h, the cells were harvested and counted by a haemocytometer after Trypan Blue staining. Whole cell extracts were prepared for Western blot analysis as described.

HeLa cells [6] = test system: HeLa cells
Experimental: (§2) Cells were subjected to selection in 1200 μg/ml G418 and the number of colonies scored manually at the end of 3 weeks.

HT29 cells = conditions: HT29 stable clones, MTT, p<0.01
Experimental: as §2
The colorimetric MTT (3-(4,5-dimethylthiazol-2yl)-2,5-diphenyl-tetrazolium bromide; Sigma) assay was used as a surrogate measure of cell number at various time points. The experiment was performed in replicates of six and repeated twice.

| Molecule | Fold of increase of PRAP expression relative to untreated HT29 [1] [fold] | PRAPcp-GAPDHcp: crossing point of PRAP normalized by GAPDH [1] | PRAPcp-GAPDHcp: crossing point of PRAP normalized by GAPDH [2] | Reduction in cell numbers compared to vector-transfected controls (HeLa cells [5]) | also measured |
| --- | --- | --- | --- | --- | --- |
| Nc1ncn([C@H]2C[C@H](O)[C@@H](CO)O2)c(=O)n1 [DAC, 5-aza-2′ deoxycytidine] | 8.5 | 9.37 | 13.8 | – | – |
| CC(/C=C/C(=O)NO)=C\[C@@H](C)C(=O)c1ccc(N(C)C)cc1 [TSA, trichostatin A] | 8.4 | 9.38 | 11.6 | – | Fold of increase of PRAP expression relative to untreated HCT116 [2]: 5.2 fold and 5.17 fold |
| CCCC(=O)[O-].[Na+] [butyrate, sodium butyrate] | – | – | – | – | PRAP gene expression versus control non-treated cells ([3]; 6 days after treatment): 29 fold; Increase of PRAP gene expression ([3]; within 24 h): 20 fold; Butyrate concentration giving maximal PRAP expression [4]: 2 to 5 mM |
| Proline-rich acidic protein [PRAP] | – | – | – | 55% | Size of colonies compared to controls (HeLa cells [6]; 3 weeks selection in 1200 μg/ml G418): reduction in the size; Reduction in the number of colonies (HeLa cells [6]; 3 weeks selection in 1200 μg/ml G418, versus vector): 50%; Rate of cell growth of stably transfected clones versus vector controls (HT29 cells): significantly lower rate of cell growth |
| PRAP/-SP: truncated PRAP without signal peptide, amino acid 21 to 151 (protein) VPAPKVPIKMQVKHWPSEQDPEKAWGARVVEPPEKDDQLVVLFPVQKPKLLTTEEKPRGQGRGPILPGTKAWMETEDTLGRVLSPEPDHDSLYHPPPEEDQGEERPRLWVMPNHQVLLGPEEDQDHIYHPQ | – | – | – | did not result in a reduction in cell numbers | – |
